Measurements published in patent US20090042878A1, “THIENOPYRIMIDYLAMINES AS MODULATORS OF THE EP2 RECEPTOR” (priority 2007, published 2009).

Tests used:
cumulus-oocyte complexes = experiment: cumulus expansion assay in vitro; type: cell-based, mice; conditions: competing with natural EP2 receptor agonist PGE2
Method: Folliculogenesis is induced in immature female mice at an age of 14-18 days by a single dose (intraperitoneal) of 10 I.U. of PMSG (Pregnant Mare Serum Gonadotropin; Sigma G-4877, Lot 68H0909). 47-50 hours after the injection, the ovaries are removed and the cumulus-oocyte complexes are removed. The cumulus complex is not yet expanded at this stage.
The cumulus-oocyte complexes are then incubated with prostaglandin E2 (PGE2) (1 μM), vehicle control (ethanol) or test substances for 20-24 hours. Medium: alpha-MEM medium with 0.1 mM IBMX, pyruvates (0.23 mM) glutamines (2 mM), pen/strep 100 IU/ml pen. and 100 μg/ml strep. and HSA (8 mg/ml). Cumulus expansion is then established through the division into four stages (according to Vanderhyden et al. Dev Biol. 1990 August; 140(2):307-317).

[1] = biological target: T1, human prostaglandin E2 (subtype EP2) receptor (Homo sapiens, UniProt P43116); experiment: cAMP antagonism test (HTRF cAMP detection, PGE2 stimulation); type: cell-based; conditions: in presence of PGE2
T1 construct: host or cells: cells in a cell culture plate
T1 sequence (P43116 whole entry): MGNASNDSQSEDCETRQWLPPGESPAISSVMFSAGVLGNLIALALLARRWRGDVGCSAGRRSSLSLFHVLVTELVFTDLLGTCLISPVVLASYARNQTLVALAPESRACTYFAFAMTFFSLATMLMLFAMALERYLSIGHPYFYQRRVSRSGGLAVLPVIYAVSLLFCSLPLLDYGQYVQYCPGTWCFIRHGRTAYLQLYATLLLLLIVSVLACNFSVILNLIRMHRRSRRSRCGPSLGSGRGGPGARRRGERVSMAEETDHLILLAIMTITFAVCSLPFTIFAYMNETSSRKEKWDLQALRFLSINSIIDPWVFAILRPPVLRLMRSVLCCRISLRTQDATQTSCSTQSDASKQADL
Method: (§1) The binding of PGE2 to the EP2 subtype of the human PGE2 receptor induces activation of membrane-associated adenylate cyclases and leads to the formation of cAMP. In the presence of the phosphodiesterase inhibitor IBMX, cAMP which has accumulated due to this stimulation and been released by cell lysis is employed in a competitive detection method. In this assay, the cAMP in the lysate competes with cAMP-XL665 for binding of an Eu cryptate-labelled anti-cAMP antibody.
(§2) The two signals are measured in a suitable measuring instrument with a time lag, i.e. after the background fluorescence has declined.
(§3) The substance solutions (0.75 μl) introduced into an assay plate and 30% DMSO are dissolved in 16 μl of a KRSB+IBMX stimulation solution (1× Krebs-Ringer Bicarbonate Buffer; Sigma-Aldrich #K-4002; including 750 μM 3-isobutyl-1-methylxanthine Sigma-Aldrich #I-7018), and then 15 μl thereof are transferred into a media-free cell culture plate which has been washed with KRSB shortly beforehand.
After preincubation at room temperature (RT) for 30 minutes, 5 μl of a 4×PGE2 solution (11 nM) are added, and incubation is carried out in the presence of the agonist at RT for a further 60 min (volume: ˜20 μl) before the reaction is then stopped by adding 5 μl of lysis buffer and incubated at RT for a further 20 min (volume: ˜25 μl). The cell lysate is then transferred into a measuring plate and measured in accordance with the manufacturer's information (cyclic AMP kit Cisbio International #62AMPPEC).

[2] = biological target: T1, human prostaglandin E2 (subtype EP2) receptor; experiment: cellular agonism test (cAMP); type: cell-based
Method: as §1, §2, §3
After incubation at room temperature (RT; volume: ˜15 μl) for 60 minutes, the reaction is then stopped by adding 5 μl of lysis buffer and incubated at RT for a further 20 min (volume: ˜20 μl). The cell lysate is then transferred into a measuring plate and measured in accordance with the manufacturer's instructions (cyclic AMP kit Cisbio International #62AMPPEC).

Structure (SMILES) | IC50 [1] [µM] | further results
CC(C)Oc1ccc2c(=O)c3cc(C(=O)O)ccc3oc2c1 [AH 6809, reference compound] |  | suppression of cumulus expansion (cumulus-oocyte complexes): approx. 30%
Oc1ccc(CCNc2ncnc3cc(-c4ccccc4)sc23)cc1 [Example 9, 4-[2-(6-Phenylthieno[3,2-d]pyrimidin-4-ylamino)ethyl]phenol] |  | suppression of cumulus expansion (cumulus-oocyte complexes; 10 μM): 45%
c1cnc2ccc(-c3cc4ncnc(NCc5ccc6c(c5)OCO6)c4s3)cc2c1 [Example 57, Benzo[1,3]dioxol-5-ylmethyl-(6-quinolin-6-yl-thieno[3,2-d]pyrimidin-4-yl)amine] | 0.61 | 
CC(=O)Nc1cccc(-c2cc3ncnc(NCc4ccc5c(c4)OCO5)c3s2)c1 [Example 69, N-(3-{4-[(Benzo[1,3]dioxol-5-ylmethyl)amino]thieno[3,2-d]pyrimidin-6-yl}phenyl)acetamide] | 0.46 | effect in the cellular agonism test [2]: no inhibition
COc1ccc(CNc2ncnc3cc(-c4cccc(NC(C)=O)c4)sc23)cc1 [Example 90, N-{3-[4-(4-Methoxybenzylamino)thieno[3,2-d]pyrimidin-6-yl]phenyl}acetamide] | 0.31 | 
